The values that follow come from ChEMBL document CHEMBL1201862, “PubChem BioAssay data set” (2004).

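Cells were grown in 96-well plates and exposed to each compound for 48 hours at five concentrations; endpoints were interpolated linearly between bracketing concentrations, or set to the highest concentration if not reached. At the GI50, growth is halved.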 Calls of active or inactive are those of the source. Rule as the data show it: active = GI50 up to about 1.1 µM and inactive = higher. Bounds are passed on as bounds.

Some test systems named below: OVCAR-5; SNB-75; MOLT-4; K562; HL-60; SK-OV-3; OVCAR-4; RXF 393; SF-539; COLO 205; UACC-62; Malme-3M; CCRF-CEM; LOX IMVI; SF-268; 786-0; Hs-578T; SW-620; DU-145; SR.
Common to all, as to experiment: NCI anticancer screen, dose series, 48 h

Consider `CCCCCc1cc2c(cc1O)CC[C@@H]1[C@@H]2CC[C@]2(C)[C@@H](O)CC[C@@H]12`, for which the GI50 in the assay on OVCAR-5 is 18.8 µM (inactive); in the assay with SNB-75 it was 13.5 µM (inactive); in the assay on MOLT-4 it was 24.3 µM (inactive); in the assay with K562 it was 16.7 µM (inactive); in the assay with HL-60 it was 21.3 µM (inactive); with SK-OV-3, 21.8 µM (inactive). Also, the GI50 is 21.6 µM (inactive) with OVCAR-4; 19.5 µM (inactive) in the assay on RXF 393; 23.8 µM (inactive) in the assay with SF-539; 16.1 µM (inactive) with COLO 205; 19.2 µM (inactive) with UACC-62; 19.1 µM (inactive) in the assay with Malme-3M. In addition, the GI50 in the assay with CCRF-CEM was 35.3 µM (inactive); with LOX IMVI, 18.2 µM (inactive); with SF-268, 17.7 µM (inactive); with 786-0, 14.8 µM (inactive); in the assay on Hs-578T, 19.8 µM (inactive); in the assay on SW-620, 26.4 µM (inactive). For the same molecule, in the assay on DU-145, the GI50 was 16.4 µM (inactive).

For the molecule `COc1ccc(-c2cc(-c3ccccc3)nc(N)c2-c2ccc3ccccc3c2)cc1`, the GI50 in the assay with SR is 2.15 µM (inactive); in the assay on OVCAR-5 it was 1.77 µM (inactive); in the assay with SNB-75, 2.3 µM (inactive); in the assay on MOLT-4, 2.37 µM (inactive); with K562, 2.94 µM (inactive); with SK-OV-3, 3.84 µM (inactive). Moreover, the GI50 in the assay on OVCAR-4 is 0.979 µM (active); with RXF 393 it was 1.82 µM (inactive); in the assay with SF-539 it was 2.1 µM (inactive); with COLO 205 it was 1.68 µM (inactive); in the assay on UACC-62, 1.58 µM (inactive); in the assay with Malme-3M, 1.25 µM (inactive). The GI50 in the assay with CCRF-CEM is 3.13 µM (inactive); with LOX IMVI, 1.72 µM (inactive); with SF-268 it was 3.3 µM (inactive); with 786-0, 1.73 µM (inactive); in the assay on Hs-578T it was 1.65 µM (inactive); with SW-620, 1.75 µM (inactive).

For the molecule `O=C1NCCCNCCCNCCCNC(=O)c2cccc1n2`, the GI50 with SR, in the assay on OVCAR-5, with SNB-75, in the assay with MOLT-4, in the assay on K562 and with SK-OV-3 was > 100 µM (inactive) throughout. The GI50 in the assay on OVCAR-4 was > 100 µM (inactive); in the assay with RXF 393, 18.1 µM (inactive); in the assay with SF-539 it was > 100 µM (inactive); with COLO 205, > 100 µM (inactive); in the assay on UACC-62, > 100 µM (inactive); with Malme-3M, > 100 µM (inactive). In addition, the GI50 with CCRF-CEM, in the assay on LOX IMVI, with SF-268, in the assay with 786-0, with Hs-578T and with SW-620 was > 100 µM (inactive) in each case.

On to `COC(=O)C(Cc1c(C2Nc3ccccc3C2CC(NC(C)=O)C(=O)OC)[nH]c2ccccc12)NC(C)=O` (configuration not stated), for which the GI50 in the assay with OVCAR-5, in the assay on SNB-75, in the assay on MOLT-4, in the assay with K562, with HL-60 and in the assay with SK-OV-3 was > 100 µM (inactive) throughout. The GI50 with RXF 393, in the assay on SF-539, in the assay on COLO 205, in the assay with UACC-62, in the assay with Malme-3M and in the assay with CCRF-CEM was > 100 µM (inactive) each time. The GI50 with LOX IMVI, in the assay with SF-268, with 786-0, in the assay with Hs-578T, in the assay with SW-620 and in the assay on DU-145 was > 100 µM (inactive) in each case.

For the molecule `CCc1ccccc1/N=N/C(=O)NNc1ccccc1CC`, the GI50 in the assay on SR is 23.2 µM (inactive); in the assay on OVCAR-5, 14.9 µM (inactive); in the assay on SNB-75, 19.4 µM (inactive); with MOLT-4, 19.4 µM (inactive); in the assay on K562, 26.1 µM (inactive); with HL-60, 23.2 µM (inactive). Moreover, the GI50 is 24 µM (inactive) in the assay with OVCAR-4; 10.3 µM (inactive) in the assay with UACC-62; 17.6 µM (inactive) in the assay on Malme-3M; 25.3 µM (inactive) in the assay with CCRF-CEM; 18.5 µM (inactive) with LOX IMVI; 17.3 µM (inactive) in the assay on SF-268. In addition, the GI50 in the assay with 786-0 was 17.6 µM (inactive); with SW-620, 17.1 µM (inactive); in the assay on DU-145 it was 14.9 µM (inactive).

With `COc1cc(/C=C2\C[C@H]3[C@@H]4CC=C5C[C@@H](O)CC[C@]5(C)[C@H]4CC[C@]3(C)C2=O)cc(OC)c1OC`, the GI50 in the assay on OVCAR-5 was 39.6 µM (inactive); in the assay with SNB-75, 30.6 µM (inactive); in the assay with MOLT-4 it was 16.3 µM (inactive); in the assay on K562 it was 12.2 µM (inactive); with HL-60 it was 0.366 µM (active); in the assay on SK-OV-3, 53.1 µM (inactive). Besides, the GI50 with OVCAR-4 was 39.4 µM (inactive); in the assay with RXF 393 it was 19.6 µM (inactive); with SF-539 it was 49 µM (inactive); with COLO 205, 20.7 µM (inactive); with UACC-62, 37.1 µM (inactive); with Malme-3M, 32.7 µM (inactive). Also, the GI50 in the assay with LOX IMVI was 22 µM (inactive); in the assay with SF-268 it was 51.5 µM (inactive); in the assay with 786-0 it was 26.6 µM (inactive); in the assay with Hs-578T it was 40.6 µM (inactive); in the assay on SW-620 it was 39.6 µM (inactive); with DU-145, 39.1 µM (inactive).

In the case of `C\C(=N/N=C1/C(=C\N(C)C)C(=O)NC(=O)N1C)c1ccc(Cl)cc1`, the GI50 in the assay with OVCAR-5 was 69.2 µM (inactive); with SNB-75, 32.6 µM (inactive); in the assay on MOLT-4, > 100 µM (inactive); in the assay with K562 it was > 100 µM (inactive); in the assay with SK-OV-3 it was > 100 µM (inactive); in the assay on OVCAR-4, > 100 µM (inactive). Also, the GI50 in the assay with RXF 393 was > 100 µM (inactive); in the assay with SF-539 it was > 100 µM (inactive); in the assay with COLO 205, > 100 µM (inactive); in the assay on UACC-62, > 100 µM (inactive); in the assay with Malme-3M, > 100 µM (inactive); with CCRF-CEM it was 15.8 µM (inactive). In addition, the GI50 was 58.2 µM (inactive) with LOX IMVI; > 100 µM (inactive) with SF-268; > 100 µM (inactive) with 786-0; > 100 µM (inactive) with Hs-578T; 89.7 µM (inactive) in the assay with SW-620; > 100 µM (inactive) in the assay on DU-145.

With `COc1cc(C(=O)Nc2c3ccccc3nc3ccccc23)cc(OC)c1OC`, the GI50 in the assay with OVCAR-5 is > 100 µM (inactive); with SNB-75, 0.885 µM (active); in the assay with MOLT-4 it was 23.2 µM (inactive); in the assay on K562, > 54.3 µM (inactive); with HL-60, 3.64 µM (inactive); with SK-OV-3 it was > 100 µM (inactive). Further, the GI50 is > 100 µM (inactive) in the assay with OVCAR-4; 14.2 µM (inactive) with RXF 393; > 100 µM (inactive) with SF-539; > 100 µM (inactive) in the assay with COLO 205; > 34.7 µM (inactive) with UACC-62; > 78.3 µM (inactive) with Malme-3M. The GI50 with CCRF-CEM was 20.5 µM (inactive); in the assay with LOX IMVI, > 100 µM (inactive); with SF-268, 28.9 µM (inactive); with 786-0, > 100 µM (inactive); in the assay with Hs-578T, > 100 µM (inactive); in the assay on SW-620 it was > 100 µM (inactive). In the assay with DU-145, the GI50 is > 100 µM (inactive).

In the case of `CN(C)c1ccc(/C=c2\sc3nnc(Cc4ccccc4)n3c2=O)cc1`, the GI50 in the assay with SR, in the assay on OVCAR-5, with SNB-75, in the assay on MOLT-4, in the assay with K562 and in the assay with HL-60 was > 10 µM (inactive) in each case. The GI50 was > 10 µM (inactive) with SK-OV-3; > 10 µM (inactive) in the assay on OVCAR-4; 31.8 µM (inactive) in the assay on RXF 393; > 10 µM (inactive) in the assay on SF-539; > 10 µM (inactive) in the assay on COLO 205; > 10 µM (inactive) in the assay with UACC-62. The GI50 was > 10 µM (inactive) in the assay on Malme-3M; > 10 µM (inactive) with CCRF-CEM; > 10 µM (inactive) in the assay with LOX IMVI; 28.3 µM (inactive) in the assay with SF-268; > 10 µM (inactive) in the assay on 786-0; 13.7 µM (inactive) with SW-620.

`O=[N+]([O-])c1ccc(Cc2nc3cc4ccccc4cc3[nH]2)cc1C(F)(F)F`: the GI50 with OVCAR-5 is 14.4 µM (inactive); with SNB-75 it was 14.9 µM (inactive); in the assay on MOLT-4 it was 13.1 µM (inactive); with K562, 6.56 µM (inactive); with HL-60, 10 µM (inactive); in the assay with SK-OV-3 it was 13.5 µM (inactive). Besides, the GI50 in the assay with OVCAR-4 is 17.5 µM (inactive); with RXF 393 it was 13.2 µM (inactive); in the assay with SF-539, 16.2 µM (inactive); with COLO 205, 4.32 µM (inactive); in the assay with Malme-3M, 9.79 µM (inactive); with CCRF-CEM it was 24.3 µM (inactive). Also, the GI50 is 18.5 µM (inactive) in the assay on LOX IMVI; 13.6 µM (inactive) in the assay on SF-268; 12.7 µM (inactive) in the assay with 786-0; 11.6 µM (inactive) in the assay on Hs-578T; 19.8 µM (inactive) with SW-620; 22.1 µM (inactive) in the assay with DU-145.

Regarding `CC(C)Cc1ccc(C(C)/C=C2\CCC(CN3CCCC3)C2=O)cc1` (configuration not stated), the GI50 in the assay with SR is 1.76 µM (inactive); in the assay with OVCAR-5, 21.8 µM (inactive); in the assay with SNB-75 it was 14.1 µM (inactive); with MOLT-4, 2.67 µM (inactive); in the assay on K562, 3.91 µM (inactive); in the assay on HL-60, 1.89 µM (inactive). Further, the GI50 in the assay on SK-OV-3 was 19.6 µM (inactive); with OVCAR-4, 13.3 µM (inactive); with RXF 393 it was 18.8 µM (inactive); with SF-539, 5.81 µM (inactive); with COLO 205, 4.5 µM (inactive); in the assay with UACC-62, 15.7 µM (inactive). Moreover, the GI50 with Malme-3M is 20.4 µM (inactive); with CCRF-CEM it was 2.22 µM (inactive); in the assay with LOX IMVI, 2.88 µM (inactive); in the assay on SF-268, 3.98 µM (inactive); with 786-0, 1.85 µM (inactive); with SW-620, 7.18 µM (inactive).
